Laboratory results published in patent US9040457B2, “Phenylamidines having a high fungicidal activity and use thereof” (ISAGRO S.P.A., priority 2010, dated 2015).

Columns and labels:
Type in all cases: in vivo
[1] = test system: Erysiphe graminis; test: Fungicidal activity in preventive application (5 days) against Erysiphe graminis on wheat; conditions: scale 100 = healthy plant, 0 = completely infected plant; for Activity P5, NT: parts developed during the test (NT); for Activity P5, T: parts treated directly (T)
Procedure: Determination of the Fungicidal Activity in Preventive Application (5 Days) Against Erysiphe graminis on Wheat
(§1) Leaves of wheat plants of the Salgemma variety, grown in pots in a conditioned environment kept at 20° C. and 70% of relative humidity (R.H.), were treated by spraying on both sides of the leaves with the compounds under examination, dispersed in hydroacetonic solutions at 20% by volume of acetone.
After remaining 5 days in a conditioned environment, the plants were infected under dry conditions by shaking over them, in order to distribute the inoculum, plants previously infected by Erysiphe graminis.
The plants were then maintained in the same cell, in a humidity-saturated environment and at a temperature ranging from 18 to 24° C. for 12 days.
(§2) At the end of this period, the external symptoms of the pathogen appeared and it was therefore possible to proceed with the evaluation of the intensity of the infection, on both the parts treated directly with the products (T), and also on the parts which had developed during the test (NT), by means of a visible percentage evaluation scale of the area of affected leafs; the scale comprises, as extremes, the value 100 (healthy plant) and the value 0 (completely infected plant).

[2] = test system: cereals, cucumbers, tomatoes and other important crops; test: Phytotoxicity of WO 00/46184 compounds on crops (background statement); conditions: at the doses which allow a good fungicidal activity
[3] = test system: Puccinia recondita; test: Fungicidal activity in preventive application (5 days) against Puccinia recondita on wheat; conditions: scale 100 = healthy plant, 0 = completely infected plant; for Activity P5, NT: parts developed during the test (NT); for Activity P5, T: parts treated directly (T)
Procedure: Determination of the Fungicidal Activity in Preventive Application (5 Days) Against Puccinia recondita on Wheat
as §1
After remaining 5 days in a conditioned environment, the plants were sprayed on both sides of the leafs with an aqueous suspension of conidia of Puccinia recondita (2 mg of inoculum per 1 ml of solution for infection).
After being sprayed, the plants were kept in a humidity-saturated environment at a temperature ranging from 18 to 24° C. for the incubation period of the fungus (1 day).
After this period, the plants were put in a greenhouse with R.H. of 70% and at a temperature of 18-24° C. for 14 days.
as §2

[4] = test system: wheat plants; test: Phytotoxicity (percentage of leaf necrosis) on wheat plants, Erysiphe graminis test; conditions: 0 = completely healthy plant, 100 = completely necrotized plant
Procedure: as §1
(§3) At the same time, the phytotoxicity was evaluated (percentage of leaf necrosis) induced on the wheat plants by the application of the products: in this case, the evaluation scale varies from 0 (completely healthy plant) to 100 (completely necrotized plant).

[5] = test system: wheat plants; test: Phytotoxicity (percentage of leaf necrosis) on wheat plants, Puccinia recondita test; conditions: 0 = completely healthy plant, 100 = completely necrotized plant
Procedure: as §1, §3

[6] = test system: phytopathogenic fungi; test: Fungicidal activity of WO 00/46184 compound (background statement); conditions: only exerted satisfactorily in excessively high dosages

SMILES | Activity P5, NT ([1]; 30 ppm) [%] | Activity P5, T ([1]; 30 ppm) [%] | Activity P5, NT ([1]; 125 ppm) [%] | Activity P5, T ([1]; 125 ppm) [%] | leaf necrosis on crops [2] | Activity P5, NT ([3]; 30 ppm) [%] | Activity P5, T ([3]; 30 ppm) [%] | Activity P5, NT ([3]; 125 ppm) [%] | Activity P5, T ([3]; 125 ppm) [%] | Phytotoxicity % N.F. ([4]; 30 ppm) [%] | Phytotoxicity % N.F. ([4]; 125 ppm) [%] | Phytotoxicity % N.F. ([5]; 30 ppm) [%] | Phytotoxicity % N.F. ([5]; 125 ppm) [%] | fungicidal activity [6]
Cc1cc(Oc2cccc(C(F)(F)F)c2)c(C)cc1N=CN(C)C [CR-1, N,N-dimethyl-N′-[4-(3-trifluoromethylphenoxy)-2,5-xylyl]-formamidine] | 76 | 90 | 90 | 100 | marked leaf necrosis | 70 | 80 | 90 | 100 | 15 | 25 | 14 | 26 | –
Cc1cc(Sc2cccc(C(F)(F)F)c2)c(C)cc1N=CN(C)C [CR-2, N,N-dimethyl-N′-[4-(3-trifluoromethylphenylthio)-2,5-xylyl]-formamidine] | 65 | 78 | 80 | 95 | – | 60 | 68 | 90 | 95 | 0 | 0 | 0 | 0 | insufficient
CCN(C)C=Nc1cc(C)c(Oc2cccc(C(F)(F)F)c2)cc1C [CR-3, N-ethyl-N-methyl-N′-[4-(3-trifluoromethylphenoxy)-2,5-xylyl]formamidine] | 85 | 95 | 96 | 100 | marked leaf necrosis | 85 | 95 | 100 | 100 | 20 | 35 | 21 | 33 | –
Cc1cc(Oc2cccc(OC(F)(F)F)c2)c(C)cc1N=CN(C)C [CR-4, N,N-dimethyl-N′-[4-(3-trifluoromethoxyphenoxy)-2,5-xylyl]formamidine] | 70 | 75 | 90 | 95 | marked leaf necrosis | 65 | 70 | 85 | 90 | 15 | 30 | 20 | 30 | –
Cc1cc(Oc2cccc(OCC(F)(F)F)c2)c(C)cc1N=CN(C)C [CR-5, N,N-dimethyl-N′-{4-[3-(2,2,2-trifluoroethoxy)phenoxy]-2,5-xylyl}formamidine] | 65 | 70 | 80 | 90 | marked leaf necrosis | 60 | 65 | 80 | 85 | 20 | 30 | 15 | 25 | –
CCN(C)C=Nc1cc(C)c(Sc2cccc(OC(F)F)c2)cc1C [Compound 1, N-ethyl-N-methyl-N′-[4-(3-difluoromethoxyphenylthio)-2,5-xylyl]formamidine] | 100 | 100 | 100 | 100 | – | 100 | 100 | 100 | 100 | 0 | 0 | 0 | 0 | –
CCN(C)C=Nc1cc(C)c(Sc2cccc(OC(F)(F)C(F)F)c2)cc1C [Compound 2, N-ethyl-N-methyl-N′-{4-[3-(1,1,2,2-tetrafluoroethoxy)phenylthio]-2,5-xylyl}formamidine] | 100 | 100 | 100 | 100 | – | 100 | 100 | 100 | 100 | 0 | 0 | 0 | 0 | –
CCN(C)C=Nc1cc(C)c(Sc2cccc(OCC(F)(F)F)c2)cc1C [Compound 15] | 100 | 100 | 100 | 100 | – | 100 | 100 | 100 | 100 | 0 | 0 | 0 | 0 | –
CCN(C)C=Nc1cc(C)c(Sc2cccc(OCC(F)(F)C(F)F)c2)cc1C [Compound 19] | 100 | 100 | 100 | 100 | – | 100 | 100 | 100 | 100 | 0 | 0 | 0 | 0 | –
CCN(C)C=Nc1cc(C)c(Sc2cccc(OCC(F)(F)C(F)(F)F)c2)cc1C [Compound 23] | 100 | 100 | 100 | 100 | – | 100 | 100 | 100 | 100 | 0 | 0 | 0 | 0 | –
